Article PMC4740242 (Cell reports, 2016)

How the values were obtained:
LRRK2 mutants = assay: HotSpot kinase assay, LRRK2 mutants; assay type: biochemical; conditions: single-dose screen verified in dose-response
T674I PDGFRα = T674I PDGFRα (Homo sapiens, UniProt P16234, T674I); assay: HotSpot radiometric kinase assay, recombinant T674I PDGFRα; assay type: biochemical; conditions: for inhibition of T674I PDGFRα: 500 nM screening concentration, 10 μM ATP
[1] = system: Ba/F3 cells expressing T674I FIP1L1-PDGFRα; assay: cells; conditions: Mus musculus, BaF3, 24 h, read-out: IC50 cell growth/viability
BTK = BTK (Homo sapiens, UniProt Q06187); assay: Wild-type kinase panel, BTK; assay type: biochemical; conditions: single-dose screen
ERBB2 = ERBB2 (Homo sapiens, UniProt P04626); assay: Wild-type kinase panel, ERBB2; assay type: biochemical; conditions: single-dose screen
ERBB4 = ERBB4 (Homo sapiens, UniProt Q15303); assay: Wild-type kinase panel, ERBB4; assay type: biochemical; conditions: single-dose screen
C-SRC = C-SRC (Homo sapiens, UniProt P12931); assay: Wild-type kinase panel, C-SRC; assay type: biochemical; conditions: single-dose screen
EPHA6 = EPHA6 (Homo sapiens, UniProt Q9UF33); assay: Wild-type kinase panel, EPHA6; assay type: biochemical; conditions: single-dose screen
EPHB4 = EPHB4 (Homo sapiens, UniProt P54760); assay: Wild-type kinase panel, EPHB4; assay type: biochemical; conditions: single-dose screen
FGR = FGR (Homo sapiens, UniProt P09769); assay: Wild-type kinase panel, FGR; assay type: biochemical; conditions: single-dose screen
HCK = HCK (Homo sapiens, UniProt P08631); assay: Wild-type kinase panel, HCK; assay type: biochemical; conditions: single-dose screen
LCK = LCK (Homo sapiens, UniProt P06239); assay: Wild-type kinase panel, LCK; assay type: biochemical; conditions: single-dose screen
MNK1 = MNK1 (Homo sapiens, UniProt Q9BUB5); assay: Wild-type kinase panel, MNK1; assay type: biochemical; conditions: single-dose screen
BLK = BLK (Homo sapiens, UniProt P51451); assay: Wild-type kinase panel, BLK; assay type: biochemical; conditions: single-dose screen
JAK3 = JAK3 (Homo sapiens, UniProt P52333); assay: Wild-type kinase panel, JAK3; assay type: biochemical; conditions: single-dose screen
TXK = TXK (Homo sapiens, UniProt P42681); assay: Wild-type kinase panel, TXK; assay type: biochemical; conditions: single-dose screen
CLK3 = CLK3 (Homo sapiens, UniProt P49761); assay: Wild-type kinase panel, CLK3; assay type: biochemical; conditions: single-dose screen
RIPK2 = RIPK2 (Homo sapiens, UniProt O43353); assay: Wild-type kinase panel, RIPK2; assay type: biochemical; conditions: single-dose screen
[2] = system: T790M EGFR mutants (T790M, T790M/L858R, d746-750/T790M); conditions: dose-response
L1196M ALK = L1196M ALK (Homo sapiens, UniProt Q9UM73, L1196M); assay: HotSpot kinase assay, L1196M ALK; assay type: biochemical; conditions: single-dose screen verified in dose-response
[3] = system: mutants of the RET tyrosine kinase; assay: HotSpot kinase assay, RET mutants; assay type: biochemical; conditions: single-dose screen verified in dose-response
[4] = system: Ba/F3 cells expressing WT FIP1L1-PDGFRα; assay: cells; conditions: Mus musculus, BaF3, 24 h, read-out: IC50 cell growth/viability

T674I PDGFRα, sequence (P16234 24-1089 T674I): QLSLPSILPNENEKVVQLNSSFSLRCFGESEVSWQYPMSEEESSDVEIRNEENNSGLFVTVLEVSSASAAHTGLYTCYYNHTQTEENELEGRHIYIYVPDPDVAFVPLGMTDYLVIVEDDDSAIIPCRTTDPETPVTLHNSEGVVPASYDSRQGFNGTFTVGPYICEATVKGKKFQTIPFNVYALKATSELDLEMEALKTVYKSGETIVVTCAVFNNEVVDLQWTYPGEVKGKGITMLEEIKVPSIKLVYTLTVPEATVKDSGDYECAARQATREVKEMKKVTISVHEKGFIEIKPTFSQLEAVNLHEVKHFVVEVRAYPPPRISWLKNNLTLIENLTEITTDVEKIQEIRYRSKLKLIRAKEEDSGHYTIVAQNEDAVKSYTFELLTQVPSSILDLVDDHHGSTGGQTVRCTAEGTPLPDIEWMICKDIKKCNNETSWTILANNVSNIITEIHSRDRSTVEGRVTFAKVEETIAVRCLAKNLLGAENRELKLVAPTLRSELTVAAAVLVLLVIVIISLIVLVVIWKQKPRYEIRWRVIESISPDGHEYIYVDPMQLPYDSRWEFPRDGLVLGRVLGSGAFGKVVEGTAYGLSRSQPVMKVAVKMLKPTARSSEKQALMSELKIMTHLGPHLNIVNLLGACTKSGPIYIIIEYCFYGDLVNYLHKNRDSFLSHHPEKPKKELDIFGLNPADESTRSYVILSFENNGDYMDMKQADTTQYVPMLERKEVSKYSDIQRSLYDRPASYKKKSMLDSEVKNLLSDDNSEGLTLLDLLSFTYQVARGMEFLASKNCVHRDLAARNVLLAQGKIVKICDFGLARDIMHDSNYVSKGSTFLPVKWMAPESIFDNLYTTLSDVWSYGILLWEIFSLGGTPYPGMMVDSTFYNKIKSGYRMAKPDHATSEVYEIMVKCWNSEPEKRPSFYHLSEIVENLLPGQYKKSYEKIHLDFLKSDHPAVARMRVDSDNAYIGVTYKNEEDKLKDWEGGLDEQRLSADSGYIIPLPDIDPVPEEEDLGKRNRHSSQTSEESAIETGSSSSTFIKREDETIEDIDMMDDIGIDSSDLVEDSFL
BTK, sequence (Q06187 whole entry): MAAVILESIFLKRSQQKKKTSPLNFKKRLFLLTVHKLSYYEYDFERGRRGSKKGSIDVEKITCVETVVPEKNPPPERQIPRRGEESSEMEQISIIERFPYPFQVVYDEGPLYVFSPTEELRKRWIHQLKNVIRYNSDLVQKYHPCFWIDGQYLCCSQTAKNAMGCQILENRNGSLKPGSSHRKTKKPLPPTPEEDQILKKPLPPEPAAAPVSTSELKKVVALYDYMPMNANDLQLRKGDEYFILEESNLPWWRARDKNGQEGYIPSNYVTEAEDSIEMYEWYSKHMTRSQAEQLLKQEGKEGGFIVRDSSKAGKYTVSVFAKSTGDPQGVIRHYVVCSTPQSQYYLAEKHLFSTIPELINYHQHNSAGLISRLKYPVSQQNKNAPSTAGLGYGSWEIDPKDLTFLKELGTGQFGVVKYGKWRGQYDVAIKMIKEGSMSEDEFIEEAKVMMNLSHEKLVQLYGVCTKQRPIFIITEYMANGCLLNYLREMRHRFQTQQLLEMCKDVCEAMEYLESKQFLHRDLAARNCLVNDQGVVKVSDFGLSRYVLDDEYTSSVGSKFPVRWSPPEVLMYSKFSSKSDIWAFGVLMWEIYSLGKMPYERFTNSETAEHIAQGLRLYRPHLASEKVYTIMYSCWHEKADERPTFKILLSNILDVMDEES
ERBB4, sequence (Q15303 26-1308): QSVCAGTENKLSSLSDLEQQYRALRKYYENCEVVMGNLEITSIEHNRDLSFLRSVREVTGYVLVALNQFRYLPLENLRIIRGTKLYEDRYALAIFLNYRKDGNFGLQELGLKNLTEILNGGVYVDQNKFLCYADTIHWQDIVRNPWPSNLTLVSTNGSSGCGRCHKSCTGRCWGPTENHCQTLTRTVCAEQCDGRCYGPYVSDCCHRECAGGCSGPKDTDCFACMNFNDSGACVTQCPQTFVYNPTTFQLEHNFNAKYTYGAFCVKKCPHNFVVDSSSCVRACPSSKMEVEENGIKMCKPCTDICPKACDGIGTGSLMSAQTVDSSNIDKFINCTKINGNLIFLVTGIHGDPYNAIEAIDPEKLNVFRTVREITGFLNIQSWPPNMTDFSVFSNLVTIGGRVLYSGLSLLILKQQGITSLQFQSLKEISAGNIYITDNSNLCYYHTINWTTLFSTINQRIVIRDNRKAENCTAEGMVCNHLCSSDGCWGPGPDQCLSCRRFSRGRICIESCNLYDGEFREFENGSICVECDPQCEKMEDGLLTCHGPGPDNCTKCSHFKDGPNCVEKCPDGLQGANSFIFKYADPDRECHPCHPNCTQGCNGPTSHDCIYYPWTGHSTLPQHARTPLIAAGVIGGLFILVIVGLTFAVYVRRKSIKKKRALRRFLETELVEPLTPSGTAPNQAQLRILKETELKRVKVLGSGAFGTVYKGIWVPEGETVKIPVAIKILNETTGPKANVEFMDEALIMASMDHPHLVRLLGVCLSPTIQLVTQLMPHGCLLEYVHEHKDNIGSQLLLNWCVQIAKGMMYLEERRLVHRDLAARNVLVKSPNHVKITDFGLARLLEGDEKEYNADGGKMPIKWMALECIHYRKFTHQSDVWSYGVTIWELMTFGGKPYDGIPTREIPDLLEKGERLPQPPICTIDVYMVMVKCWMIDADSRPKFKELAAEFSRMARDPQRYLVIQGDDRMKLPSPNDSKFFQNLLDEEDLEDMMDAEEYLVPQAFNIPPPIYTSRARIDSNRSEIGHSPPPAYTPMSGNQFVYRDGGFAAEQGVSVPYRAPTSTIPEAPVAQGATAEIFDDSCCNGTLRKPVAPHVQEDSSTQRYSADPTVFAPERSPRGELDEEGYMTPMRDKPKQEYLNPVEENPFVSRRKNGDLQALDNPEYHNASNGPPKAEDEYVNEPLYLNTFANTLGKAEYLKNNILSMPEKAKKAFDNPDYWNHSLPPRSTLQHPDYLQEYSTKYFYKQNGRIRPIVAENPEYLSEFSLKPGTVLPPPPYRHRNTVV
JAK3, sequence (P52333 whole entry): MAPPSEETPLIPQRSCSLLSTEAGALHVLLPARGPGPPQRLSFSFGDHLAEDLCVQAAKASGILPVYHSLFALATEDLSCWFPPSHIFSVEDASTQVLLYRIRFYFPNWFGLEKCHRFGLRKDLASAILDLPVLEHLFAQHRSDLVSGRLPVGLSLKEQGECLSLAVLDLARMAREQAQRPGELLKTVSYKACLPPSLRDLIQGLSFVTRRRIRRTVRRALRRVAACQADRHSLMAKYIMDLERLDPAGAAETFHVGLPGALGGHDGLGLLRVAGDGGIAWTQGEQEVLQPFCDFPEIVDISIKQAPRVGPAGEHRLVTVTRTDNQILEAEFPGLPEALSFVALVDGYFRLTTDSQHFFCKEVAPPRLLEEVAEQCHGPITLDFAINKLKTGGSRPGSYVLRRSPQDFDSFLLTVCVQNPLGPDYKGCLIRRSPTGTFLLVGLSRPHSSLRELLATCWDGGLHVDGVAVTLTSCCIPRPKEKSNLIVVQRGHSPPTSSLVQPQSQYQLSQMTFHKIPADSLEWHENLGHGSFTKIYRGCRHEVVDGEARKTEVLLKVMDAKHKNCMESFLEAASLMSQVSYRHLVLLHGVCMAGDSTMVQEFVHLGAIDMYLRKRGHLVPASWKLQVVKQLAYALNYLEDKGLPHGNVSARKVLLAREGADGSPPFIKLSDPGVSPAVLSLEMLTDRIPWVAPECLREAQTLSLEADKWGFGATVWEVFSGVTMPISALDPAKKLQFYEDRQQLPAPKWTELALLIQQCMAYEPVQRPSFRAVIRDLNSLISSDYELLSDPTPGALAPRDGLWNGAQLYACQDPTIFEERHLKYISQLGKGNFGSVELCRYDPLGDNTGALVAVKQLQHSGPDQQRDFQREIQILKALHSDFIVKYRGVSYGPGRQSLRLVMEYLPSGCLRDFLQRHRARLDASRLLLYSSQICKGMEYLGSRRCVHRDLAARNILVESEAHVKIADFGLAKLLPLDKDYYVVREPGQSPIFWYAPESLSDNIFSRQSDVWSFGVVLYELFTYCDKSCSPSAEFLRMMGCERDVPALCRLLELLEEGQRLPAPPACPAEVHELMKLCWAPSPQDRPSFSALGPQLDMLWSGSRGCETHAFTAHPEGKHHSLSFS
C-SRC, sequence (P12931 whole entry): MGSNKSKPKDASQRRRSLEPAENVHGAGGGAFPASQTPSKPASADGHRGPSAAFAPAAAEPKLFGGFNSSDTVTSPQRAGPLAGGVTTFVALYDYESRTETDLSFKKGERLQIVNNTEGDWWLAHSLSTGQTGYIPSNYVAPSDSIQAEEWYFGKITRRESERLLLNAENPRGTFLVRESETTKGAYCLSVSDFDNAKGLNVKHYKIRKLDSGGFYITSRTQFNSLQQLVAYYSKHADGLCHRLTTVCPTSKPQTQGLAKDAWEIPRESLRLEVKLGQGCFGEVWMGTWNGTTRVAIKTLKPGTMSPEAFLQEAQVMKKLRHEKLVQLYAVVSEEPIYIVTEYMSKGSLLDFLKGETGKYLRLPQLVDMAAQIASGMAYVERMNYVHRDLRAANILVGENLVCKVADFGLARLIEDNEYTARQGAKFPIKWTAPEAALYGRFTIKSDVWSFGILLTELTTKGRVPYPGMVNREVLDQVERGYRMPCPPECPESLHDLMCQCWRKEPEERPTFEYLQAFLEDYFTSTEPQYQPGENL

## Flt-3 Inhibitor
LRRK2 mutants
  inhibition of LRRK2 mutants (in words): inhibit

## CNC(=O)c1cc(Oc2ccc(NC(=O)Nc3ccc(Cl)c(C(F)(F)F)c3)cc2)ccn1 [sorafenib]
T674I PDGFRα
  inhibition of T674I PDGFRα: > 90%
[1]
  IC50: 144 nM

## Cc1ccc(Nc2nccc(N(C)c3ccc4c(C)n(C)nc4c3)n2)cc1S(N)(=O)=O [pazopanib]
T674I PDGFRα
  inhibition of T674I PDGFRα: > 90%
[1]
  IC50: 3170 nM

## CN(C)C/C=C/C(=O)Nc1cc2c(Nc3ccc(F)c(Cl)c3)ncnc2cc1O[C@H]1CCOC1 [afatinib]
BTK
  inhibition of BTK: more than 50%
ERBB2
  inhibition of ERBB2: more than 50%
ERBB4
  inhibition of ERBB4: more than 50%
C-SRC
  inhibition of C-SRC: more than 50%
EPHA6
  inhibition of EPHA6: more than 50%
EPHB4
  inhibition of EPHB4: more than 50%
FGR
  inhibition of FGR: more than 50%
HCK
  inhibition of HCK: more than 50%
LCK
  inhibition of LCK: more than 50%
MNK1
  inhibition of MNK1: more than 50%

## EGFR/ErbB2/ErbB4 Inhibitor
BLK
  inhibition of BLK: more than 50%
BTK
  inhibition of BTK: more than 50%
ERBB4
  inhibition of ERBB4: more than 50%
JAK3
  inhibition of JAK3: more than 50%
TXK
  inhibition of TXK: more than 50%
CLK3
  inhibition of CLK3: more than 50%
RIPK2
  inhibition of RIPK2: more than 50%
[2]
  apparent IC50 against all T790M EGFR kinases (in words): low nanomolar

## bosutinib isomer
L1196M ALK
  inhibition of crizotinib-resistant L1196M ALK (in words): inhibitor

## Jak3 Inhibitor II
LRRK2 mutants
  inhibition of LRRK2 mutants (in words): inhibit

## COc1cc2ncnc(Nc3cccc(Cl)c3)c2cc1OC [compound 5]
T674I PDGFRα; IC50 comparison
  fold more potent than compound 7 against T674I PDGFRα: approximately 1.5 fold

## Cc1cc(Nc2cc(N3CCN(C)CC3)nc(Sc3ccc(NC(=O)C4CC4)cc3)n2)[nH]n1 [tozasertib]
[3]
  inhibition of RET mutants (in words): can inhibit

## C#Cc1cccc(Nc2ncnc3cc(OCCOC)c(OCCOC)cc23)c1 [erlotinib]
T674I PDGFRα
  inhibition of T674I PDGFRα: > 90%
[4]
  IC50: 14500 nM
[1]
  IC50: 1640 nM

## COc1cc2ncnc(Nc3cccc(O)c3)c2cc1OC [compound 1]
T674I PDGFRα; IC50 comparison, meta vs para substituent
  fold more potent than compound 2 against T674I PDGFRα: 2 fold

## COc1cc2ncnc(Nc3ccc(Oc4ccccc4)cc3)c2cc1OC [compound 3]
T674I PDGFRα; IC50 comparison
  potency relative to compound 4 against T674I PDGFRα: several-fold more potent

## COc1cc2ncnc(Nc3ccc(O)cc3)c2cc1OC [compound 2]
T674I PDGFRα; IC50 comparison
  fold less potent than compound 3 against T674I PDGFRα: ~ 2 fold

## COc1cc2ncnc(Nc3cccc(Br)c3)c2cc1OC [compound 6]
T674I PDGFRα; IC50 comparison
  fold more potent than compound 7 against T674I PDGFRα: approximately 1.5 fold

## CCN(CC)CCNC(=O)c1c(C)[nH]c(/C=C2\C(=O)Nc3ccc(F)cc32)c1C [sunitinib]
T674I PDGFRα
  inhibition of T674I PDGFRα: > 90%
[1]
  IC50: 45.2 nM
